In the experiment the target is JAK1 (Homo sapiens (Human), UniProt P23458). Briefly: Analysis of JAK1 activity inhibitory capacity (ADP-Glo Kinase assay). The format is biochemical. The conditions noted are these: JAK1 enzyme, ATP 250 uM, IRS-1tide substrate, 30° C. 40 minutes, luminescence. As for the experimental part:
Experimental Example 1: Analysis of JAK1 activity inhibitory capacity (ADP-Glo™ Kinase assay)
An inhibitory effect of the inventive compound on JAK was identified as follows.
A control material and a test material were prepared through dilution at each concentration by using DMSO. At the same time, ATP (250 uM) and JAK's substrate (JAK1, IRS-1tide 40 ng/mL) were prepared through dilution in kinase buffer (40 mM Tris-HCl pH 7.5, 20 mM MgCl2, 0.5 mg/mL BSA, 50 uM DTT).
A test drug for each concentration, the substrate, the ATP and JAK enzymes were mixed in an eppendorf tube, and then subjected to reaction in an incubator at 30° C. for 40 minutes.
ADP-Glo ? reagent included in ADP-Glo™ Kinase Enzyme System (Promega, USA, V9571) was added to each eppendorf tube, and then subjected to reaction in the incubator at 30° C. for 40 minutes.
A kinase detection reagent included in the ADP-Glo™ Kinase Enzyme System was inserted into the eppendorf tube, after which luminescence was measured by using Wallac Victor 2TM with an integration time set to 1 second, such that an inhibitory capacity of the test material on JAKs phosphorylation was analyzed. A concentration of the compound, at which JAK enzyme activity inhibition occurs 50% compared to the control group, was determined as IC50 (nM) of an inhibitor.
Chain of JAK1 (P23458 whole entry): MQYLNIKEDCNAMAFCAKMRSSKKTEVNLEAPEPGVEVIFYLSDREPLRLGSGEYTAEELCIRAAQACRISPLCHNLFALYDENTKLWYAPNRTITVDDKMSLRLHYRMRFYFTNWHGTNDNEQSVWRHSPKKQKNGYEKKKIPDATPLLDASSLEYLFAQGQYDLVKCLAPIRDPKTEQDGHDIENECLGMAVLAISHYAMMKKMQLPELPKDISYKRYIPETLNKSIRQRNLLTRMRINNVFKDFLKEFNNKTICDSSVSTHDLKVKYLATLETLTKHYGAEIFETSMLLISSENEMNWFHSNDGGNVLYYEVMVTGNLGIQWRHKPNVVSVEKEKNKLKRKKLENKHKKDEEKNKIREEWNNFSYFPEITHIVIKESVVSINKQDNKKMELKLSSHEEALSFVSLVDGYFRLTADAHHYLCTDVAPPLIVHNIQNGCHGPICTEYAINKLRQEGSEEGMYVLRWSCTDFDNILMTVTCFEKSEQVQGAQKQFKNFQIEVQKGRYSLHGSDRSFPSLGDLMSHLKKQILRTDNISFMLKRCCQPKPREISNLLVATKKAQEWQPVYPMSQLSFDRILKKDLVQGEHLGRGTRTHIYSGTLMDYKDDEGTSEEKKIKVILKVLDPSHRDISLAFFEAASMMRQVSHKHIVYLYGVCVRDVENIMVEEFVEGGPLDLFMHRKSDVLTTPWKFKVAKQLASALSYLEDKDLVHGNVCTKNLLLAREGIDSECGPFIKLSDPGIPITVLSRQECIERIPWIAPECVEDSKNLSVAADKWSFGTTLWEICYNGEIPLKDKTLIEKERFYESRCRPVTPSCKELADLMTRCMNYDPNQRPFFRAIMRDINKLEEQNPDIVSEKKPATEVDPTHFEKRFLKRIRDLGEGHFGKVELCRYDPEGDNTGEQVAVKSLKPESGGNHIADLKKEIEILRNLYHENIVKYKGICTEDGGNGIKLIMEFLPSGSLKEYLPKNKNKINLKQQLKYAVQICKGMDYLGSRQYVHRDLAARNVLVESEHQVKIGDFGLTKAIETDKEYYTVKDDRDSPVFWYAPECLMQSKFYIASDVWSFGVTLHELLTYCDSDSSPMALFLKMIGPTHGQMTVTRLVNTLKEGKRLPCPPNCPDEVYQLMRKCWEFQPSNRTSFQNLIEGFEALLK
For the compound `N#C/C(=C/c1cccs1)C(=O)Nc1cccc2c1ccn2-c1ccnc(NC(=O)C2CC2)c1` [Example 46, N-(4-(4-(2-cyano-3-(thiophen-2-yl)acrylamido)-1H-indol-1-yl)pyridin-2-yl)cyclopropanecarboxamide], the IC50 was greater than 1000 nM.

As to `O=C(Nc1cccc2c(-c3ccnc(NC(=O)C4CC4)c3)c[nH]c12)c1nc(C(F)(F)F)cs1` [Example 21, N-(3-(2-(cyclopropanecarboxamido)pyridin-4-yl)-1H-indol-7-yl)-4-(trifluoromethyl)thiazole-2-carboxamide], the IC50 was 100 to 1000 nM.

The compound `O=C(NCC(F)(F)F)Nc1cccc2c(-c3ccnc(NC(=O)C4CC4)c3)c[nH]c12` [Example 39, N-(4-(7-(3-(2,2,2-trifluoroethyl)ureido)-1H-indol-3-yl)pyridin-2-yl)cyclopropanecarboxamide] displayed an IC50 of less than 100 nM.

Compound `CC(C(=O)Nc1cccc2c(-c3ccnc(NC(=O)C4CC4)c3)c[nH]c12)N1CCN(C)CC1` (stereo not drawn) [Example 18, N-(4-(7-(2-(4-methylpiperazin-1-yl)propanamido)-1H-indol-3-yl)pyridin-2-yl)cyclopropanecarboxamide] returned an IC50 of 100 to 1000 nM.

For the compound `CC(C)=C(C)C(=O)Nc1cccc2c(-c3ccnc(NC(=O)C4CC4)c3)c[nH]c12` [Example 17, N-(4-(7-(2,3-dimethylbut-2-enamido)-1H-indol-3-yl)pyridin-2-yl)cyclopropanecarboxamide], the IC50 lay in the range of 100 to 1000 nM.

Turning to `N#CC1(CC(=O)Nc2cccc3c2ccn3-c2ccnc(NC(=O)C3CC3)c2)CC1` [Example 58, N-(4-(4-(2-(1-cyanocyclopropyl)acetamido)-1H-indol-1-yl)pyridin-2-yl)cyclopropane carboxamide], the IC50 lay in the range of 100 to 1000 nM.

`O=C(Nc1ccc(F)cc1F)Nc1cccc2c1ccn2-c1ccnc(NC(=O)C2CC2)c1` [Example 61, N-(4-(4-(3-(2,4-difluorophenyl)ureido)-1H-indol-1-yl)pyridin-2-yl)cyclopropanecarboxamide]: the IC50 was greater than 1000 nM.

Compound `N#CCC(=O)Nc1cccc2c1ccn2-c1ccnc(NC(=O)C2CC2)c1` [Example 41, N-(4-(4-(2-cyanoacetamido)-1H-indol-1-yl)pyridin-2-yl)cyclopropanecarboxamide] yielded an IC50 of 100 to 1000 nM.

As for `N#C/C(=C\c1cccs1)C(=O)Nc1cccc2c(-c3ccnc(NC(=O)C4CC4)c3)c[nH]c12` [Example 25, (E)-N-(4-(7-(2-cyano-3-(thiophen-2-yl)acrylamido)-1H-indol-3-yl)pyridin-2-yl)cyclopropanecarboxamide], the IC50 is 100 to 1000 nM.

`N#Cc1cc(C(=O)Nc2cccc3c2ccn3-c2ccnc(NC(=O)C3CC3)c2)ccn1` [Example 51, 2-cyano-N-(1-(2-(cyclopropanecarboxamido)pyridin-4-yl)-1H-indol-4-yl)isonicotinamide] showed an IC50 greater than 1000 nM.

In turn, `O=C(NCC(F)(F)F)Nc1cccc2c(-c3ccnc(NC(=O)C4CC4)c3)cn(C(=O)NCC(F)(F)F)c12` [Example 37, 3-(2-(cyclopropanecarboxamido)pyridin-4-yl)-N-(2,2,2-trifluoroethyl)-7-(3-(2,2,2-trifluoroethyl)ureido)-1H-indole-1-carboxamide] came in with an IC50 greater than 1000 nM.

The compound `O=C(Nc1cccc2c(-c3ccnc(NC(=O)C4CC4)c3)c[nH]c12)c1cncs1` [Example 6, N-(3-(2-(cyclopropanecarboxamido)pyridin-4-yl)-1H-indol-7-yl)thiazole-5-carboxamide] returned an IC50 of less than 100 nM.

Compound `N#Cc1ccc(C(=O)Nc2cccc3c2ccn3-c2ccnc(NC(=O)C3CC3)c2)cc1` [Example 47, 4-cyano-N-(1-(2-(cyclopropanecarboxamido)pyridin-4-yl)-1H-indol-4-yl)benzamide] came in with an IC50 greater than 1000 nM.

`Cc1ccc(C(=O)Nc2cccc3c2ccn3-c2ccnc(NC(=O)C3CC3)c2)cn1` [Example 59, N-(1-(2-(cyclopropanecarboxamido)pyridin-4-yl)-1H-indol-4-yl)-6-methylnicotinamide] showed an IC50 greater than 1000 nM.

`CC(C)=C(C#N)C(=O)Nc1cccc2c(-c3cc(C)nc(NC(=O)C4CC4)c3)c[nH]c12` [Example 9, N-(4-(7-(2-cyano-3-methylbut-2-enamido)-1H-indol-3-yl)-6-methylpyridin-2-yl)cyclopropanecarboxamide] gave an IC50 greater than 1000 nM.

In turn, `O=C(Nc1cccc2c1ccn2-c1ccnc(NC(=O)C2CC2)c1)c1cc[nH]n1` [Example 55, N-(1-(2-(cyclopropanecarboxamido)pyridin-4-yl)-1H-indol-4-yl)-1H-pyrazole-3-carboxamide] displayed an IC50 greater than 1000 nM.

`CC(C#N)C(=O)Nc1cccc2c1ccn2-c1ccnc(NC(=O)C2CC2)c1` (stereo not drawn) [Example 54, N-(4-(4-(2-cyanopropanamido)-1H-indol-1-yl)pyridin-2-yl)cyclopropanecarboxamide] showed an IC50 of 100 to 1000 nM.

For `Cc1ccc(C(=O)Nc2cccc3c(-c4ccnc(NC(=O)C5CC5)c4)c[nH]c23)cn1` [Example 28, N-(3-(2-(cyclopropanecarboxamido)pyridin-4-yl)-1H-indol-7-yl)-6-methylnicotinamide], the IC50 was less than 100 nM.

Compound `N#C/C(=C\c1ccccc1)C(=O)Nc1cccc2c1ccn2-c1ccnc(NC(=O)C2CC2)c1` [Example 48, N-(4-(4-(2-cyano-3-phenylacrylamido)-1H-indol-1-yl)pyridin-2-yl)cyclopropanecarboxamide] had an IC50 greater than 1000 nM.

Compound `CC(C)=C(C#N)C(=O)Nc1cccc2c(-c3ccnc(NC(=O)C4CC4)c3)c[nH]c12` [Example 1, N-(4-(7-(2-cyano-3-methylbut-2-enamido)-1H-indol-3-yl)pyridin-2-yl)cyclopropanec arboxamide] yielded an IC50 of less than 100 nM.

`N#CC1(C(=O)Nc2cccc3c2ccn3-c2ccnc(NC(=O)C3CC3)c2)CCOCC1` [Example 50, 4-cyano-N-(1-(2-(cyclopropanecarboxamido)pyridin-4-yl)-1H-indol-4-yl)tetrahydro-2H-pyran-4-carboxamide] yielded an IC50 greater than 1000 nM.

`CC(C)=C(C#N)C(=O)Nc1cccc2c(-c3cc(NC(=O)C4CC4)ncc3C)c[nH]c12` [Example 12, N-(4-(7-(2-cyano-3-methylbut-2-enamido)-1H-indol-3-yl)-5-methylpyridin-2-yl)cyclopropanecarboxamide] yielded an IC50 greater than 1000 nM.

For `O=C(Nc1cccc2c1ccn2-c1ccnc(NC(=O)C2CC2)c1)c1ccnc(F)c1` [Example 52, N-(1-(2-(cyclopropanecarboxamido)pyridin-4-yl)-1H-indol-4-yl)-2-fluoroisonicotinamide], the IC50 is greater than 1000 nM.

`Cn1cccc(C(=O)Nc2cccc3c2ccn3-c2ccnc(NC(=O)C3CC3)c2)c1=O` [Example 45, N-(1-(2-(cyclopropanecarboxamido)pyridin-4-yl)-1H-indol-4-yl)-1-methyl-2-oxo-1,2-dihydropyridine-3-carboxamide] had an IC50 greater than 1000 nM.

`N#Cc1cc(C(=O)Nc2cccc3c(-c4ccnc(NC(=O)C5CC5)c4)c[nH]c23)ccn1` [Example 35, 2-cyano-N-(3-(2-(cyclopropanecarboxamido)pyridin-4-yl)-1H-indol-7-yl)isonicotin amide] had an IC50 of 100 to 1000 nM.

`O=C(Nc1cccc2c(-c3ccnc(NC(=O)C4CC4)c3)c[nH]c12)c1cnc(F)c(F)c1` [Example 30, N-(3-(2-(cyclopropanecarboxamido)pyridin-4-yl)-1H-indol-7-yl)-5,6-difluoronicotinamide] returned an IC50 of less than 100 nM.

With `O=C(Nc1cccc2c(-c3ccnc(NC(=O)C4CC4)c3)c[nH]c12)c1ccc(Cl)nc1` [Example 32, 6-chloro-N-(3-(2-(cyclopropanecarboxamido)pyridin-4-yl)-1H-indol-7-yl)nicotinamide], the IC50 is 100 to 1000 nM.

Regarding `N#CCC(=O)Nc1cccc2c(-c3ccnc(NC(=O)C4CC4)c3)c[nH]c12` [Example 10, N-(4-(7-(2-cyanoacetamido)-1H-indol-3-yl)pyridin-2-yl)cyclopropanecarboxamide], the IC50 was less than 100 nM.

Take `N#CC1(CC(=O)Nc2cccc3c(-c4ccnc(NC(=O)C5CC5)c4)c[nH]c23)CC1` [Example 13, N-(4-(7-(2-(l-cyanocyclopropyl)acetamido)-1H-indol-3-yl)pyridin-2-yl)cyclopropanecarboxamide]: the IC50 lay within 100 to 1000 nM.

Consider `CC(C)=C(C#N)C(=O)Nc1cccc2c1ccn2-c1ccnc(NC(=O)C2CC2)c1` [Example 40, N-(4-(4-(2-cyano-3-methylbut-2-enamido)-1H-indol-1-yl)pyridin-2-yl)cyclopropanecarboxamide], for which the IC50 fell in the range of 100 to 1000 nM.

For `Cc1cnc(NC(=O)C2CC2)cc1-c1c[nH]c2c(NC(=O)CC#N)cccc12` [Example 8, N-(4-(7-(2-cyanoacetamido)-1H-indol-3-yl)-5-methylpyridin-2-yl)cyclopropanecarboxamide], the IC50 lay in the range of 100 to 1000 nM.

As for `CCCC(=O)Nc1cccc2c(-c3ccnc(NC(=O)C4CC4)c3)c[nH]c12` [Example 7, N-(4-(7-butyramido-1H-indol-3-yl)pyridin-2-yl)cyclopropanecarboxamide], the IC50 is less than 100 nM.

For `Cc1cc(C)cc(C(=O)Nc2cccc3c(-c4ccnc(NC(=O)C5CC5)c4)c[nH]c23)c1` [Example 5, N-(3-(2-(cyclopropanecarboxamido)pyridin-4-yl)-1H-indol-7-yl)-3,5-dimethylbenzamid], the IC50 is less than 100 nM.

Source of the values: US12180185B2, “Compound as protein kinase inhibitor, and pharmaceutical composition comprising thereof” (HK INNO.N Corporation, priority 2018, dated 2024).
